Assays:
human CB1 receptors = human CB1 receptors (Homo sapiens (Human), UniProt P21554); assay: functional cAMP assay, CB1; format: cell-based; conditions: functional cAMP assay, CHO cells expressing human CB1; read-out: human CB1 EC50
Summary of the method: (§1)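 CHO cells expressing human CB1 or CB2 were preincubated 30 min at 30 °C in Krebs Ringer bicarbonate buffer with 1 mM IBMX, then exposed to compound for 30 min at 30 °C. cAMP was measured by TR-FRET (cAMP-Nano-TRF) against a 10 μM–0.13 nM cAMP standard curve, and EC50 values were derived.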

human CB2 receptors = human CB2 receptors (Homo sapiens (Human), UniProt P34972); assay: functional cAMP assay, CB2; format: cell-based; conditions: functional cAMP assay, CHO cells expressing human CB2; read-out: human CB2 EC50
Summary of the method: as §1

Chain of human CB1 receptors (P21554 whole entry): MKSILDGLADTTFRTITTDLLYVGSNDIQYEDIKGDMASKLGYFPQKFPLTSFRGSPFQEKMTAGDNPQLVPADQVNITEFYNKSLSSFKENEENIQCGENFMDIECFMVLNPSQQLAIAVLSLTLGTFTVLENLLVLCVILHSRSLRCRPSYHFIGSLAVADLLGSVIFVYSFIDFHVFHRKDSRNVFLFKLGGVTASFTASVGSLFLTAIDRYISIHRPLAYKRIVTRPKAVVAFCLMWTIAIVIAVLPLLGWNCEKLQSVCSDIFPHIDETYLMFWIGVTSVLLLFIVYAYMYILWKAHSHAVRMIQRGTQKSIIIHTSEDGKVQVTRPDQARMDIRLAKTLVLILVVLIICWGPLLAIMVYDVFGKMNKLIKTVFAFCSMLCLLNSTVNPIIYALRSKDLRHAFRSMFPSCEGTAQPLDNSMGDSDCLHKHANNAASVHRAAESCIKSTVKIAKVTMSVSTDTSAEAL
Chain of human CB2 receptors (P34972 whole entry): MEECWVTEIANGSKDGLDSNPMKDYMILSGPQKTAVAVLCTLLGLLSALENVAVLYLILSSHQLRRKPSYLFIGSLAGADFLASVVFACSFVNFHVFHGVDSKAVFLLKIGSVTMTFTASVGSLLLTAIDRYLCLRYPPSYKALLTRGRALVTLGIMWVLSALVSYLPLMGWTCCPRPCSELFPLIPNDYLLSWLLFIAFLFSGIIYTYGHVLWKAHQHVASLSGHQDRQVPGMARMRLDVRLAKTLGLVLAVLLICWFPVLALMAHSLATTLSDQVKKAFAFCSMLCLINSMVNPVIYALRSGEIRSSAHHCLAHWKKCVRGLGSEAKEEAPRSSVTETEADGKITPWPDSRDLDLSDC

SMILES	EC50 (human CB1 receptors)	EC50 (human CB2 receptors)
COC(=O)C(C)(NC(=O)c1cnc(N2CC(F)(F)C2)c(OCC2CC2)n1)C1CC1 (stereo not drawn) [Example 80, 2-Cyclopropyl-2-{[6-cyclopropylmethoxy-5-(3,3-difluoro-azetidin-1-yl)-pyrazine-2-carbonyl]-amino}-propionic acid methyl ester]	> 10 µM	0.0007 µM
NC(=O)CC1(NC(=O)c2cnc(C3CC3)c(OCC3CC3)n2)COC1 [Example 84, 5-Cyclopropyl-6-cyclopropylmethoxy-pyrazine-2-carboxylic acid (3-carbamoylmethyl-oxetan-3-yl)-amide]	> 10 µM	0.0146 µM
NC(=O)CC1(NC(=O)c2cnc(N3CC(F)(F)C3)c(OCC3CC3)n2)COC1 [Example 85, 6-Cyclopropylmethoxy-5-(3,3-difluoro-azetidin-1-yl)-pyrazine-2-carboxylic acid (3-carbamoylmethyl-oxetan-3-yl)-amide]	> 10 µM	0.0058 µM
Cc1nc([C@@](C)(NC(=O)c2cnc(N3CC(F)(F)C3)c(OCC3CC3)n2)C2CC2)no1 [Example 86, (+)-6-Cyclopropylmethoxy-5-(3,3-difluoro-azetidin-1-yl)-pyrazine-2-carboxylic acid [1-cyclopropyl-1-(5-methyl-[1,2,4]oxadiazol-3-yl)-ethyl]-amide]	> 10 µM	0.0237 µM
Cc1nc([C@](C)(NC(=O)c2cnc(N3CC(F)(F)C3)c(OCC3CC3)n2)C2CC2)no1 [Example 87, (−)-6-Cyclopropylmethoxy-5-(3,3-difluoro-azetidin-1-yl)-pyrazine-2-carboxylic acid [1-cyclopropyl-1-(5-methyl-[1,2,4]oxadiazol-3-yl)-ethyl]-amide]	> 10 µM	0.0132 µM
CC(C)C(NC(=O)c1cnc(N2CC(F)(F)C2)c(OCC2CC2)n1)C(N)=O (stereo not drawn) [Example 88, 6-Cyclopropylmethoxy-5-(3,3-difluoro-azetidin-1-yl)-pyrazine-2-carboxylic acid (1-carbamoyl-2-methyl-propyl)-amide]	> 10 µM	0.0791 µM
NC(=O)C1(NC(=O)c2cnc(N3CC(F)(F)C3)c(OCC3CC3)n2)CCCCC1 [Example 89, 6-Cyclopropylmethoxy-5-(3,3-difluoro-azetidin-1-yl)-pyrazine-2-carboxylic acid (1-carbamoyl-cyclohexyl)-amide]	> 10 µM	0.0706 µM
CC(C)C(NC(=O)c1cnc(N2CC(F)(F)C2)c(OCC2CC2)n1)C(=O)N(C)C (stereo not drawn) [Example 91, 6-Cyclopropylmethoxy-5-(3,3-difluoro-azetidin-1-yl)-pyrazine-2-carboxylic acid (1-dimethylcarbamoyl-2-methyl-propyl)-amide]	> 10 µM	0.0205 µM
CC(C)C(NC(=O)c1cnc(C2CC2)c(OCC2CC2)n1)C(=O)N(C)C (stereo not drawn) [Example 92, 5-Cyclopropyl-6-cyclopropylmethoxy-pyrazine-2-carboxylic acid (1-dimethylcarbamoyl-2-methyl-propyl)-amide]	> 10 µM	0.0086 µM
O=C(Nc1ccc(Cl)s1)c1cnc(N2CC(F)(F)C2)c(OCC2CC2)n1 [Example 93, 6-Cyclopropylmethoxy-5-(3,3-difluoro-azetidin-1-yl)-pyrazine-2-carboxylic acid (5-chloro-thiophen-2-yl)-amide]	> 10 µM	0.0741 µM
O=C(NC1(CO)CCCCC1)c1cnc(C2CC2)c(OCC2CC2)n1 [Example 94, 5-Cyclopropyl-6-cyclopropylmethoxy-pyrazine-2-carboxylic acid (1-hydroxymethyl-cyclohexyl)-amide]	> 10 µM	0.012 µM
COCCC(C)(C)NC(=O)c1cnc(C2CC2)c(OCC2CC2)n1 [Example 95, 5-Cyclopropyl-6-cyclopropylmethoxy-pyrazine-2-carboxylic acid (3-methoxy-1,1-dimethyl-propyl)-amide]	> 10 µM	0.0224 µM

— patent US9403808B2, “Pyrazine derivatives” (Hoffmann-La Roche Inc., priority 2011, dated 2016)
